Experimental data as given in PMC4275348 (Molecular microbiology, 2014).
Where a chain is given by its changes, count along the chain named. Entries after “also recorded” stand apart in the source; their conditions may differ.

Key:
WT LuxN = WT LuxN (Vibrio campbellii, UniProt A7MRY4); conditions: XK847
Kin^off LuxN mutants = experiment: Bioluminescence of V. harveyi XK006 harboring Kin^off biased luxN alleles; type: cell-based, Vibrio harveyi; conditions: 10 μM 3O-C12 HSL
LuxN = LuxN (Vibrio campbellii, UniProt A7MRY4); type: cell-based, Vibrio harveyi; conditions: IC50 values measured at various concentrations of AI-1
AinR^Q204H = experiment: Bioluminescence of V. harveyi XK006 harboring ainR Q204H; type: cell-based, Vibrio fischeri
[1] = system: AinR Ser^203 replaced by Ile; experiment: Bioluminescence of V. harveyi XK006 harboring ainR S203I; type: cell-based, Vibrio fischeri
LuxN^L166H/N176D = target: T1, LuxN^L166H/N176D (Vibrio campbellii, UniProt A7MRY4, L166H/N176D); experiment: Bioluminescence of V. harveyi XK006 carrying luxN L166H/N176D; type: cell-based, Vibrio harveyi; conditions: 10 μM C8 HSL
T1 sequence (A7MRY4 1-849 L166H/N176D): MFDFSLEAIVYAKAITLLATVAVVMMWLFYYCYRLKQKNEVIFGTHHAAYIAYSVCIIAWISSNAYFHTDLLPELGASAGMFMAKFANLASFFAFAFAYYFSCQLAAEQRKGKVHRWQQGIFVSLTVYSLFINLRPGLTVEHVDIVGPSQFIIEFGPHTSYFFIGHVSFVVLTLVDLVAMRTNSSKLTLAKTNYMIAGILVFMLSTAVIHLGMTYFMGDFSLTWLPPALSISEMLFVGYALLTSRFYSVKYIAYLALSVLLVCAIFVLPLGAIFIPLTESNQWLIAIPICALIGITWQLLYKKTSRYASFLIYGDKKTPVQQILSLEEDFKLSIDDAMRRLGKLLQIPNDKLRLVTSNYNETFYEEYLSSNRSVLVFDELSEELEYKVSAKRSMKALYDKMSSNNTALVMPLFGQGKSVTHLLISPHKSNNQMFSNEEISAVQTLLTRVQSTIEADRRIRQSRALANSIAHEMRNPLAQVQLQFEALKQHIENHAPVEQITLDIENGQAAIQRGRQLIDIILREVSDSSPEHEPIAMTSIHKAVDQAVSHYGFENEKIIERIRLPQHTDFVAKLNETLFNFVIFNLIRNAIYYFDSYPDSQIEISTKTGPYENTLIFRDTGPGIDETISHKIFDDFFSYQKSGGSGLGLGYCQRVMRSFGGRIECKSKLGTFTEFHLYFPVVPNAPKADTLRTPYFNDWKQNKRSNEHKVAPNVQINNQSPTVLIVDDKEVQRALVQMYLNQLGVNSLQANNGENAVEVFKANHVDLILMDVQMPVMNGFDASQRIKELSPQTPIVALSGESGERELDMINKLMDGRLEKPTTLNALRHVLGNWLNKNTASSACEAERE

luxN^L166A/H210N = luxN^L166A/H210N (Vibrio campbellii, UniProt A7MRY4, H210N/L166A); conditions: AHLs added at 1 μM
LuxN^L166A = LuxN^L166A (Vibrio campbellii, UniProt A7MRY4, L166A)
LuxN^G147D/Y194H = target: T2, LuxN^G147D/Y194H (Vibrio campbellii, UniProt A7MRY4, G147D/Y194H); experiment: Bioluminescence of V. harveyi XK006 carrying luxN G147D/Y194H; type: cell-based, Vibrio harveyi; conditions: 10 μM C8 HSL
T2 sequence (A7MRY4 1-849 G147D/Y194H): T1 sequence (A7MRY4 1-849 L166H/N176D) with G147D, H166L, D176N, Y194H

WT AinR = experiment: Bioluminescence of V. harveyi XK006 harboring WT V. fischeri ainR; type: cell-based, Vibrio fischeri

SMILES | light production phenotype (WT LuxN) | inhibition of light production (Kin^off LuxN mutants) | mechanism of antagonism (LuxN) | detection (light production) (AinR^Q204H) | detection (light production) [1] | higher light compared to DMSO or 20 nM AI-1 (LuxN^L166H/N176D) [fold] | light production (luxN^L166A/H210N) | detection (light production) (LuxN^L166A) | induction of light production (LuxN^G147D/Y194H) [fold] | light production (WT AinR; AHLs added at 1 μM) | sensitivity of the reporter (WT AinR; dose response (Table S3))
CCCCCCCCCC(=O)CC(=O)N[C@H]1CCOC1=O [3O-C12 HSL] | completely dark phenotype | inhibited light production to basal levels; also recorded: reduced light production to basal levels | competitive | – | – | – | – | – | – | – | –
CCCCCCCC(=O)N[C@H]1CCOC1=O [C8 HSL] | – | – | behaved similarly to 3O-C12 HSL | retained the capability to detect | most potent agonist | 3 | produced maximal light | only modest detection | 10 | light production was induced | most sensitive
